Source: ChEMBL document CHEMBL5465560, “Selectivity Literature for EUbOPEN Chemogenomic Library” (2024)

Key:
[1] = target: Homeodomain-interacting protein kinase 1 (Homo sapiens, UniProt Q86Z02); test: Selectivity interaction (KinomeScan (DiscoverX)) EUB0000666a HIPK1; conditions: at 10 µM
[2] = target: Serine/threonine-protein kinase PAK 1 (Homo sapiens) (UniProt Q13153); test: Selectivity interaction (KinomeScan (DiscoverX)) EUB0000229b PAK1; conditions: at 10 µM
[3] = target: Serine/threonine-protein kinase PAK 3 (Homo sapiens) (UniProt O75914); test: Selectivity interaction (KinomeScan (DiscoverX)) EUB0000229b PAK3; conditions: at 10 µM
[4] = target: Casein kinase II subunit alpha' (Homo sapiens) (UniProt P19784); test: Selectivity interaction (Kinase panel (KiNativ target engagement assay in Jurkat cells)) EUB0001635a CSNK2A2; assay type: cell-based; conditions: Selectivity number of off-targets 0.0, Selectivity number of targets 233.0, Source Knowledge https://www.sciencedirect.com/science/article/pii/S2451945619300674?via%3Dihub, at 1 µM
[5] = target: Mitogen-activated protein kinase kinase kinase kinase 4 (Homo sapiens, UniProt O95819); conditions: at 10 µM
Mitogen-activated protein kinase kinase kinase kinase 4, sequence (O95819 2-1239 limits assumed): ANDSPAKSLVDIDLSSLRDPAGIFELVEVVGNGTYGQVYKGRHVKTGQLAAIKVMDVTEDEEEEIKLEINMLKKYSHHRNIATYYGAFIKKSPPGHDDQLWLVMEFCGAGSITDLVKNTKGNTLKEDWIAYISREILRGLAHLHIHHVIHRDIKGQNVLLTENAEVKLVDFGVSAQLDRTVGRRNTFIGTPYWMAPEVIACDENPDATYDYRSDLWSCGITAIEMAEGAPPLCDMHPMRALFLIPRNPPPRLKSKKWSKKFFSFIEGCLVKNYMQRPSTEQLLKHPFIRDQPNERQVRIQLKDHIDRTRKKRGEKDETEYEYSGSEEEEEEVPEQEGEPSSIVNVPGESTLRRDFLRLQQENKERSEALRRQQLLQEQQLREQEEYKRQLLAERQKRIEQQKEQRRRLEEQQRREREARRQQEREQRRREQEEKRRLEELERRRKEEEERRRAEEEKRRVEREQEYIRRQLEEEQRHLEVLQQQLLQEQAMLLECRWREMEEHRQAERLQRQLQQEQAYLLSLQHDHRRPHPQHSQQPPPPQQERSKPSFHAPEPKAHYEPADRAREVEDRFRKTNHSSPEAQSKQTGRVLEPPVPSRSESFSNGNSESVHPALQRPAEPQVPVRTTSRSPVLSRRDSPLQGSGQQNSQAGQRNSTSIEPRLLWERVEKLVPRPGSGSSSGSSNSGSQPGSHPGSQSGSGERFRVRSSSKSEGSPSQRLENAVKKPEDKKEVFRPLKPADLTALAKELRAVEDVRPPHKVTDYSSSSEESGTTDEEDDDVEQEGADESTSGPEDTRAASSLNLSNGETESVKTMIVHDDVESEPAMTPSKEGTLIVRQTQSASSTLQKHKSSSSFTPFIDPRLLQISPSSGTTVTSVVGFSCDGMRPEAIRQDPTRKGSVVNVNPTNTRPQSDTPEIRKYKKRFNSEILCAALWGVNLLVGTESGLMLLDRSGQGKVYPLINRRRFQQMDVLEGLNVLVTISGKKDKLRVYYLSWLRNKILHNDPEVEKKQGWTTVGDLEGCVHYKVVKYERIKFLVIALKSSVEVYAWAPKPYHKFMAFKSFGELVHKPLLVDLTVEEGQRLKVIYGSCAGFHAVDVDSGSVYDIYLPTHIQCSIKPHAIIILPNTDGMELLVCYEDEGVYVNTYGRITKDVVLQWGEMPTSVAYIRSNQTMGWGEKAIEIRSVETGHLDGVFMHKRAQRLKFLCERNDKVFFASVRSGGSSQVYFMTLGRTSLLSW

[6] = target: T1, Serine/threonine-protein kinase Nek2 (Homo sapiens) (UniProt P51955); test: Selectivity interaction (Kinase panel (DSF assay)) EUB0001559a NEK2
T1 sequence (whole entry): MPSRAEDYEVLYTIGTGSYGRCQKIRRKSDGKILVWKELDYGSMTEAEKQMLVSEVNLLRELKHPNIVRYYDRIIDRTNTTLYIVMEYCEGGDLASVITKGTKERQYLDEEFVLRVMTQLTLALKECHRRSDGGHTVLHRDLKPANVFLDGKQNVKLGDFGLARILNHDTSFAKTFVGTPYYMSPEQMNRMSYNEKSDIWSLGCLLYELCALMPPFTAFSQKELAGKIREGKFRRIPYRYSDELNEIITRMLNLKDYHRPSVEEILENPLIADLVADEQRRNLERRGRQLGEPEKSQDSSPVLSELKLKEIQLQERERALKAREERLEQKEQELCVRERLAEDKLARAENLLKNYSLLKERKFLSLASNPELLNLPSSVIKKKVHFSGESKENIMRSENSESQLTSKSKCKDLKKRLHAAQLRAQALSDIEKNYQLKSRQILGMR

[7] = target: T2, Serine/threonine-protein kinase 36 (Homo sapiens) (UniProt Q9NRP7); test: Selectivity interaction (KinomeScan (DiscoverX)) EUB0000595a STK36; conditions: at 10 µM
T2 sequence (whole entry): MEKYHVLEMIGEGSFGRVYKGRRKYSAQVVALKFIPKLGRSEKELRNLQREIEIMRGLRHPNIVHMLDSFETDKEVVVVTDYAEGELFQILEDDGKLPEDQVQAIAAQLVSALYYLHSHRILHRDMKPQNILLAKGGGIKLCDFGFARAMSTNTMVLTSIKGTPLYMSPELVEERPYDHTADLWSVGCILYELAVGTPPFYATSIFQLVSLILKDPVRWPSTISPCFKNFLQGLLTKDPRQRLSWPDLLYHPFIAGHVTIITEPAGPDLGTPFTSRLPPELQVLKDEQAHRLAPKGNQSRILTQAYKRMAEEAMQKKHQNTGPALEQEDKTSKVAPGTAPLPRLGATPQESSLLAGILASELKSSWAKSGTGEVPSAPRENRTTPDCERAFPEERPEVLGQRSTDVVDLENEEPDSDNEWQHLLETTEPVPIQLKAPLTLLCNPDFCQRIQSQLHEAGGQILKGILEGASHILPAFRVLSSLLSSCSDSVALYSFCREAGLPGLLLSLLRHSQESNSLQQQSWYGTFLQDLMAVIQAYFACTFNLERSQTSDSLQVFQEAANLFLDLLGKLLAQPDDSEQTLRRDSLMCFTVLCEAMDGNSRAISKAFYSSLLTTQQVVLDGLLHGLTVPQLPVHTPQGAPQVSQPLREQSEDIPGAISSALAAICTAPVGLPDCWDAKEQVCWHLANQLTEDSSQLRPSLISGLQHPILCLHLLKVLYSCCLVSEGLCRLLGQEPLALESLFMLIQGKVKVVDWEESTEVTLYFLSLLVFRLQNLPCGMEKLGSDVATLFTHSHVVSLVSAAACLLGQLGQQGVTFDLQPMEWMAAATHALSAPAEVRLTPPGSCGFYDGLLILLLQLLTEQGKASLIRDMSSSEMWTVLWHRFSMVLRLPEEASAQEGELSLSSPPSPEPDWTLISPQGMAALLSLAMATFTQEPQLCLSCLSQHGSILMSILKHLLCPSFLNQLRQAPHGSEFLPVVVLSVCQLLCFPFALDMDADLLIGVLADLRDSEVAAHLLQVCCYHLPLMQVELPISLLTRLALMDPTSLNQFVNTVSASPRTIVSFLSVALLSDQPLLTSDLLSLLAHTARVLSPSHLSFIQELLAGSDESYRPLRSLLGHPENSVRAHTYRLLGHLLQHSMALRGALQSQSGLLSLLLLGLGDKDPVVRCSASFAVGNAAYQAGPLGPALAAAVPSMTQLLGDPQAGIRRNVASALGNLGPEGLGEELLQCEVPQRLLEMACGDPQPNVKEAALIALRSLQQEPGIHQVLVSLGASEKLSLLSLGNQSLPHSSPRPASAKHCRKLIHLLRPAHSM

[8] = target: Mast/stem cell growth factor receptor Kit (Homo sapiens, UniProt P10721); conditions: at 10 µM
Mast/stem cell growth factor receptor Kit, sequence (P10721 whole entry): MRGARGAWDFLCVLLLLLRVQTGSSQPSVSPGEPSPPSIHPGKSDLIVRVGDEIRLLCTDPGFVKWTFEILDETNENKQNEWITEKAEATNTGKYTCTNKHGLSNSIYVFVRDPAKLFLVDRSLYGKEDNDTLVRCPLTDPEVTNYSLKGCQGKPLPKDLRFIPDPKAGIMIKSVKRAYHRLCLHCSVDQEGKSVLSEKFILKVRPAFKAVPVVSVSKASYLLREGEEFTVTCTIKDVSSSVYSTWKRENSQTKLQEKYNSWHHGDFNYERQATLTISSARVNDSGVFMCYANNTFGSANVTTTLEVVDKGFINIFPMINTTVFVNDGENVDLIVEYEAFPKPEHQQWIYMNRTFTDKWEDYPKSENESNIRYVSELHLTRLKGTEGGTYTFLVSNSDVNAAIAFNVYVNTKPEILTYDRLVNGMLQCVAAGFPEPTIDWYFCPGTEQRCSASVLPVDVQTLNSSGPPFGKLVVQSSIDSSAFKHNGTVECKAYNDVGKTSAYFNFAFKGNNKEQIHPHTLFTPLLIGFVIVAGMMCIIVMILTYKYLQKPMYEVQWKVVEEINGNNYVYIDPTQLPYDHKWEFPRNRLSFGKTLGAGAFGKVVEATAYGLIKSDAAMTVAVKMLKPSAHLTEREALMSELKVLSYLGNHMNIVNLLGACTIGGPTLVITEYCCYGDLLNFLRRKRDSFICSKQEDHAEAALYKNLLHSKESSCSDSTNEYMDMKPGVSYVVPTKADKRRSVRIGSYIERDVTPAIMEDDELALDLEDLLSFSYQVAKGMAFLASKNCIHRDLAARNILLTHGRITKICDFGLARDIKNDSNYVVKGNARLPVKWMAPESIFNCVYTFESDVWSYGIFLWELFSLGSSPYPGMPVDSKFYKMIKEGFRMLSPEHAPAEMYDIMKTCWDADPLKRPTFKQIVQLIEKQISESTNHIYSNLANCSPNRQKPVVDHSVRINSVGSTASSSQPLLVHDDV

[9] = target: RAC-gamma serine/threonine-protein kinase (Homo sapiens, UniProt Q9Y243); test: Selectivity interaction (KinomeScan (DiscoverX)) EUB0000607a AKT3; conditions: at 10 µM
RAC-gamma serine/threonine-protein kinase, sequence (Q9Y243 whole entry): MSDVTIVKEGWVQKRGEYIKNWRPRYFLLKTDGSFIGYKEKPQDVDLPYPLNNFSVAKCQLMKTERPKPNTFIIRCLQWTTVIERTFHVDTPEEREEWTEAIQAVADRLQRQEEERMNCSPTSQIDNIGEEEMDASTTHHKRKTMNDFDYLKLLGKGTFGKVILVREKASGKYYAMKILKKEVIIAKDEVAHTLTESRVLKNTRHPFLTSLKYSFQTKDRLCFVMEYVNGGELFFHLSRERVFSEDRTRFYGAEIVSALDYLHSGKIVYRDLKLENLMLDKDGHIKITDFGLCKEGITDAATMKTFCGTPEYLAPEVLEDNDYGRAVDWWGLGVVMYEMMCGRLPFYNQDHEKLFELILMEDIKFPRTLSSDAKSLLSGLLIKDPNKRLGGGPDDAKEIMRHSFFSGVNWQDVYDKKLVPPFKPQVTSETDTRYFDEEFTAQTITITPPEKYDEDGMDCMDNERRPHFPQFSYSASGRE

[10] = target: Histone-lysine N-methyltransferase KMT5C (Homo sapiens) (UniProt Q86Y97); test: Selectivity interaction (Methyltransferase screen (radiometric assays, panel of 8 PRMTs, 21 protein lysine methyltransferases, 3 DNA methyltransferases, and one RNA methyltransferase)) EUB0000272b SUV420H2
Histone-lysine N-methyltransferase KMT5C (Homo sapiens), sequence (Q86Y97 whole entry, looked up): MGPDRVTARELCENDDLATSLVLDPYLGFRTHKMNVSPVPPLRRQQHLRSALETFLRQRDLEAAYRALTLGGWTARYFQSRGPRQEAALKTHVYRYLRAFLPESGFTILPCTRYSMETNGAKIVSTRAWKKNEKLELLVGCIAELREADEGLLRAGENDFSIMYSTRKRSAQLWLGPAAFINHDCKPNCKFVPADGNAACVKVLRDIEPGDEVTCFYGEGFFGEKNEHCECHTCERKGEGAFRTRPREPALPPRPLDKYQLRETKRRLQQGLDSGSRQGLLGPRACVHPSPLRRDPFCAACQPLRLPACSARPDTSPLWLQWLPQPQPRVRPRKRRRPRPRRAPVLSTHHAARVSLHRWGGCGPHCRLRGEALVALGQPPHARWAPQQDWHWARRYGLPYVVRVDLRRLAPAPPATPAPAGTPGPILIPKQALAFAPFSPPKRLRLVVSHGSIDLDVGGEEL

[11] = system: ALK tyrosine kinase receptor (Homo sapiens), Q9UM73 [R1275Q]; test: (§1) Selectivity interaction (LanthaScreen Eu Kinase Binding Assay) EUB0001632a ALK; conditions: at 10 µM
ALK tyrosine kinase receptor (Homo sapiens), Q9UM73 [R1275Q], sequence (Q9UM73 whole entry R1275Q): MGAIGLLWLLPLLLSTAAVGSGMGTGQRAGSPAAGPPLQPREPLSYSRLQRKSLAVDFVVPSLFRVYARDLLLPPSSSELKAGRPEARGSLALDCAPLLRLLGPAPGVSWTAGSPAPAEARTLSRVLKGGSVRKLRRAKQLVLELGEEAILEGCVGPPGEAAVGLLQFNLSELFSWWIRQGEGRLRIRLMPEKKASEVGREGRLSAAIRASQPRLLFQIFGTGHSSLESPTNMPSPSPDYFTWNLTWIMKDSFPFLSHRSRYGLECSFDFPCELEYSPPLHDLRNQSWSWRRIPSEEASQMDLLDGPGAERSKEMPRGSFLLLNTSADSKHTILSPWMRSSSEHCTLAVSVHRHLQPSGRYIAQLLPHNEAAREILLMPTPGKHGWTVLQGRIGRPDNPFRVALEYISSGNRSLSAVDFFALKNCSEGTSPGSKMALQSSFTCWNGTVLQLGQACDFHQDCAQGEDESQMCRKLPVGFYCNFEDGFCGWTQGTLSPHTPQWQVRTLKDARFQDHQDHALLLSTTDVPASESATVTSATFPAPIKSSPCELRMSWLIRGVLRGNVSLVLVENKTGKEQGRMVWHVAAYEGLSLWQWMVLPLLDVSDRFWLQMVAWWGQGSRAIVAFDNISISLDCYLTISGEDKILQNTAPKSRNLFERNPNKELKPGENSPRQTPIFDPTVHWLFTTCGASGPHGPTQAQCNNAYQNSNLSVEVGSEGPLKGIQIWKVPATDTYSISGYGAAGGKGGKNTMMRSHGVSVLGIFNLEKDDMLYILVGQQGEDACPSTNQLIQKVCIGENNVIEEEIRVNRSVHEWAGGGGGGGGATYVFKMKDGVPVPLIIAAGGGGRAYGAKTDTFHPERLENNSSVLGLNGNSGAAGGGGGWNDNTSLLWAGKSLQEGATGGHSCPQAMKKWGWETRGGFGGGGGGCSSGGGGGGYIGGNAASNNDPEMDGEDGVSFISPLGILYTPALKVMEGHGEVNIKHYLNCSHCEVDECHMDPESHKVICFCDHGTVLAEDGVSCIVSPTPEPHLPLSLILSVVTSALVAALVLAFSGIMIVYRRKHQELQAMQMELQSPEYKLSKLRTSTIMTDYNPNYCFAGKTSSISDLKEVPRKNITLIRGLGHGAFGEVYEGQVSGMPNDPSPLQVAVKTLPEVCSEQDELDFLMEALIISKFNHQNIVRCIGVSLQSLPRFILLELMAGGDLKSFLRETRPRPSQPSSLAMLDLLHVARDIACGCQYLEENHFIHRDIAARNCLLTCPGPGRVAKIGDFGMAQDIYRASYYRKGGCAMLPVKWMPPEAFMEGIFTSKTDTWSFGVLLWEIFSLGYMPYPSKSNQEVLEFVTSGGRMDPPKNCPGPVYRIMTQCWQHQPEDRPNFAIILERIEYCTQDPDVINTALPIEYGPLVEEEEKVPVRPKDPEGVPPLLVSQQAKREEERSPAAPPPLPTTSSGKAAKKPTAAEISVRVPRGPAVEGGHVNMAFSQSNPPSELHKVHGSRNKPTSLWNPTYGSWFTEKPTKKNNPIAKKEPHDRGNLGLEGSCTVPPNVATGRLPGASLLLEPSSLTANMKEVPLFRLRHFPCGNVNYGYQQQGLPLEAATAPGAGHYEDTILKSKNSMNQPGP

[12] = system: ALK tyrosine kinase receptor (Homo sapiens), Q9UM73 [L1196M]; test: as §1; conditions: at 10 µM
ALK tyrosine kinase receptor (Homo sapiens), Q9UM73 [L1196M], sequence (Q9UM73 whole entry L1196M, looked up): as the sequence (Q9UM73 whole entry R1275Q) above, with L1196M, Q1275R counted along it

[13] = system: ALK tyrosine kinase receptor (Homo sapiens), Q9UM73 [C1156Y]; test: as §1; conditions: at 10 µM
ALK tyrosine kinase receptor (Homo sapiens), Q9UM73 [C1156Y], sequence (Q9UM73 whole entry C1156Y, looked up): as the sequence (Q9UM73 whole entry R1275Q) above, with C1156Y, Q1275R counted along it

[14] = system: ALK tyrosine kinase receptor (Homo sapiens), Q9UM73 [F1174L]; test: as §1; conditions: at 10 µM
ALK tyrosine kinase receptor (Homo sapiens), Q9UM73 [F1174L], sequence (Q9UM73 whole entry F1174L): as the sequence (Q9UM73 whole entry R1275Q) above, with F1174L, Q1275R counted along it

**Q.** Which % of control [1] does the source give for `O=C(NOC[C@H](O)CO)c1ccc(F)c(F)c1Nc1ccc(I)cc1F` here?
**A.** 91%

**Q.** With `COc1cc(N(C)c2ccnc3ccc(C(F)(F)F)cc23)cc(OC)c1OC` as the molecule, how does the % binding [2] read?
**A.** 89%

**Q.** And the % binding [3]?
**A.** 96%

**Q.** With `C=CC(=O)Nc1ccc(C(=O)Nc2[nH]nc3c2CN(C(=O)N[C@H](CN(C)C)c2ccccc2)C3(C)C)cc1` as the molecule, how does the % of engagement [4] read?
**A.** -0.9%

**Q.** For `CCN(CC)CCCCNc1ncc2cc(-c3cc(OC)cc(OC)c3)c(NC(=O)NC(C)(C)C)nc2n1`, which % of control [5] is on record?
**A.** 100%

**Q.** `CN(C(=O)c1cnn2cccnc12)c1cc2c(cc1N1CCOCC1)C(=O)N(C[C@@H](F)C(C)(C)O)C2` was tested. Which dTM [6] did it give?
**A.** 2.1 K

**Q.** How did the % of control [7] turn out when `COCC(=O)NC/C=C/c1ccc2ncnc(Nc3ccc(Oc4ccc(C)nc4)c(C)c3)c2c1` [CP-724714] was run?
**A.** 100%

**Q.** `Cc1cc([C@@H](C)Nc2ccccc2C(=O)O)c2nc(N3CCOCC3)cc(=O)n2c1` [AZD-6482] was tested. Which % of control [8] did it give?
**A.** 91%

**Q.** How did the % of control [9] turn out when `CNC(=O)Nc1ccc(-c2nc(N3CC4CCC(C3)O4)c3cnn(C4CCC5(CC4)OCCO5)c3n2)cc1` was run?
**A.** 86%

**Q.** What does the source list for `Cc1cc(C)cc([C@H]2c3cc(C)ccc3NC(=O)CN2C(=O)c2ccc(Br)s2)c1`?
**A.** % of activity ([10]; at 1 µM): 101%; % of activity ([10]; at 10 µM): 102%

**Q.** `Cn1cc(-n2cnc3c(NCc4nc5cc(Cl)c(Cl)cc5[nH]4)nc(N4CCOCC4)nc32)cn1` was tested. Which % of inhibition [11] did it give?
**A.** -41.1%

**Q.** What about the % of inhibition [12] of the same molecule?
**A.** -25.5%

**Q.** What about the % of inhibition [13] of the same molecule?
**A.** -8.74%

**Q.** And the % of inhibition [14]?
**A.** -19.4%
